Test: Electric potential experiment (degree of carbonation, carbon dioxide electrode) as surrogate of bitterness perception
Assay type: physicochemical
Details: Sol. Nos. 26-28, acetaminophen as the API, 100 mL deionized water
Protocol: Formulations comprising the effervescent combination (sodium bicarbonate and citric acid) and molecules/compositions that impart a bitter taste (such as APIs or compositions comprising APIs) can be prepared according to Tables 1-5 below. Exemplary formulations according to the disclosure were made according to the following general procedure. 100 mL of deionized water from MILLI-Q® Q-POD® water purifier (having about 1.9 ppb total organic content) was weighed out in an appropriately sized glass beaker. The ingredients mentioned in Tables 1-5 below were weighed out and added to the glass beaker containing deionized water, and then the mixture was stirred for 15 minutes until the blend is homogenous. Each ingredient was sieved through a mesh 18 strainer ([…] strainer size means particles won't be greater than 0.0394 inches (1000 microns or 1 mm) in diameter) to remove clumps before weighing. The METTLER TOLEDO® XP6035S was used to measure ingredient weight, but any suitable weighing balance may be used.
Various combinations of bitter tasting molecules/compositions (e.g., APIs or compositions comprising APIs) along with the effervescent combination were prepared as solutions (see Sol. Nos. 1-36 in FIG. 1) per the general procedure described in Example 1. For the electric potential experiment, after the solutions were stirred, a carbon dioxide electrode (which measures the degree of carbonation) was dipped in the glass beaker to assess degree of carbonation (unit is electric potential in mV). The THERMO SCIENTIFIC™ ORION™ VSTAR PRO™ 9502BNWP carbon dioxide electrode was used to measure electrical potential (mV). The METTLER TOLEDO SEVENCOMPACT™ PH meter PD-470 was used to measure the pH. […] The carbon dioxide electrode was rinsed with deionized water and cleaned with a lint free tissue in between samples.

average electric potential (including 0.300 g of the effervescent combination (low end)): 22.24 mV | average electric potential (including 0.400 g of the effervescent combination): 30.4 mV | average electric potential (including 0.500 g (high end) of the effervescent combination): 35.67 mV
Compound: CC(=O)Nc1ccc(O)cc1 [acetaminophen]

Source: patent publication US20250281391A1, “EFFERVESCENT COMPOSITION AND METHOD FOR DETERMINING BITTERNESS PERCEPTION” (BAYER HEALTHCARE LLC, priority 2024, published 2025)
